Experimental data taken from PubChem BioAssay (NCI).
Several values for one entry are separate records, joined by “and”; a condition that tells them apart may be missing. Identical values can stand only once.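 Growth conditions: 96-well plates. Treatment: test compound, 48 hours, 5 concentrations. Analysis: linear interpolation between bracketing concentrations; unreached endpoints set to highest concentration. Here, GI50 denotes the concentration required for 50% inhibition of growth. Definition used: TGI = concentration required for complete inhibition of growth.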

How the values were obtained:
Assay in all cases: DTP human tumour cell line panel, 48 h
SF-539 CNS = system: SF-539 CNS
HOP-92 NSCLC = system: HOP-92 NSCLC
SK-OV-3 ovarian = system: SK-OV-3 ovarian
NCI-H23 lung = system: NCI-H23 lung
NCI/ADR-RES ovarian = system: NCI/ADR-RES ovarian
SK-MEL-2 melanoma = system: SK-MEL-2 melanoma
SK-MEL-28 melanoma = system: SK-MEL-28 melanoma
HCC-2998 colon = system: HCC-2998 colon
BT-549 breast = system: BT-549 breast
U251 CNS = system: U251 CNS

SMILES | GI50 (SF-539 CNS) | TGI (SF-539 CNS) | GI50 (HOP-92 NSCLC) | TGI (HOP-92 NSCLC) | GI50 (SK-OV-3 ovarian) | TGI (SK-OV-3 ovarian) | GI50 (NCI-H23 lung) | TGI (NCI-H23 lung) | GI50 (NCI/ADR-RES ovarian) | TGI (NCI/ADR-RES ovarian) | GI50 (SK-MEL-2 melanoma) | TGI (SK-MEL-2 melanoma) | GI50 (SK-MEL-28 melanoma) | TGI (SK-MEL-28 melanoma) | GI50 (HCC-2998 colon) | TGI (HCC-2998 colon) | GI50 (BT-549 breast) | TGI (BT-549 breast) | GI50 (U251 CNS) | TGI (U251 CNS)
CC1=C(C#N)C23C(=O)N(c4ccccc4)C(=O)C2=C(O)C=CC3(O)N1Cc1ccc(Cl)cc1Cl (stereo not given) | 2.11 µM | 4.9 µM | 3.02 µM | 13.3 µM | 11.2 µM | 23.2 µM | 3.33 µM | 15.9 µM | 16.2 µM | 39.5 µM | 2.98 µM | 11.5 µM | 1.53 µM | 3.4 µM | 1.81 µM | 3.82 µM | 1.46 µM | 3.17 µM | 2.86 µM | 11.3 µM
COc1cc(-c2nn(-c3cccc(NC(=O)Nc4ccc(Cl)c(C(F)(F)F)c4)c3)cc2-c2ccncc2)ccc1Cl | 1.66 µM | 6.34 µM | 0.499 µM | 1.48 µM | 1.45 µM | 13 µM | 1.13 µM | 8.02 µM | 1.04 µM | 7.99 µM | 1.01 µM | 2.58 µM | 1.2 µM | 5.01 µM | 1.55 µM | 7.3 µM | 2.36 µM | 10.2 µM | 0.985 µM | 4.18 µM
Cc1ccc2c(C(C[N+](=O)[O-])c3ccccc3)c(-c3ccccc3)[nH]c2c1 (stereo not given) | 22.8 µM | > 95 µM | 11.8 µM | > 95 µM | 33.8 µM | > 95 µM | 47 µM | > 95 µM | 14.2 µM | > 95 µM | 46.3 µM | > 95 µM | > 95 µM | > 95 µM | 73.7 µM | > 95 µM | 34 µM | > 95 µM | 32 µM | > 95 µM
O=C1C2CCN(CC2)C1CN1CCOCC1 (stereo not given) |  | 29 µM |  | 3.47 µM |  | 31.7 µM |  | 23.9 µM |  | 3.41 µM |  | 32.5 µM |  | 10.6 µM |  | 29.2 µM |  | 4.53 µM |  | 26.2 µM
O=C(O)Cc1cccc2c(=O)cc(-c3ccccc3)oc12 | 398 µM | > 250 µM and 838 µM | 43.9 µM and 318 µM | 178 µM and > 948 µM | > 813 µM | 250 µM and > 1000 µM | 581 µM | > 1000 µM | 194 µM | 250 µM and > 1000 µM | 844 µM | 250 µM and > 1000 µM | 533 µM | > 1000 µM | > 1000 µM | > 1000 µM | > 1000 µM | 250 µM and > 1000 µM | 360 µM | > 1000 µM
Cc1ccc(S(=O)(=O)ON2C(=O)c3cccc4cc([N+](=O)[O-])cc(c34)C2=O)cc1 |  |  |  | > 100 µM |  | > 100 µM |  | > 100 µM |  | > 100 µM |  | > 100 µM |  | > 100 µM |  | 58.9 µM |  | > 100 µM |  | > 100 µM
COc1ccc2cc(-c3cnc4nonc4n3)ccc2c1 | 0.825 µM | 4.88 µM | 16.1 µM | > 100 µM | 10.8 µM | > 100 µM | 4.49 µM | > 100 µM | 1.32 µM | > 100 µM | 3.66 µM | > 100 µM | > 100 µM | > 100 µM | 2.32 µM | > 100 µM | 4.39 µM | > 100 µM | 3.21 µM | 37.3 µM
COC(=O)/C=C1/SC(=Nc2cccc(Cl)c2)N(CCc2c[nH]c3ccc(O)cc23)C1=O | 1.63 µM | 3.24 µM | 2 µM | 4.67 µM | 2.24 µM | 5.01 µM | 1.86 µM | 4.34 µM | 2.41 µM | 6.89 µM | 1.53 µM | 3.08 µM | 1.69 µM | 3.33 µM | 1.88 µM | 3.48 µM | 1.24 µM | 3.05 µM | 1.76 µM | 3.51 µM
COc1ccc(Br)cc1NC(=O)Nc1cccc2c1ccn2Cc1ccnc(N)c1 | 3.34 µM and 2.38 µM | 19.3 µM and > 10 µM | 2.18 µM and 1.96 µM | 7.9 µM and 8.55 µM | 8.38 µM and > 10 µM | 26.3 µM and > 10 µM | 14.5 µM and > 10 µM | 40.7 µM and > 10 µM | 6.08 µM and > 10 µM | 60.3 µM and > 10 µM | 2.78 µM and 3.82 µM | 8.87 µM and > 10 µM | 11.5 µM and > 10 µM | 24.8 µM and > 10 µM | 4.41 µM and 4.33 µM | 10.1 µM and > 10 µM | 11.7 µM and > 10 µM | 38.6 µM and > 10 µM | 4.55 µM and 5.4 µM | 15.6 µM and > 10 µM
COC[C@H](NC(=O)c1cnc(C)s1)C(=O)N[C@@H](COC)C(=O)N[C@@H](Cc1ccccc1)C(=O)[C@@]1(C)CO1 | 27.7 µM | > 74.1 µM | 30.3 µM | > 82.4 µM | > 94.9 µM | > 100 µM | 36.6 µM | > 100 µM | > 100 µM | > 100 µM | 28.7 µM | > 91.6 µM | 27.5 µM | > 95.1 µM | 18.2 µM | 37.6 µM | 14.3 µM | 42.6 µM | 47.8 µM | > 100 µM
CCOC(=O)C(=Cc1ccc(C#N)cc1)C(=O)OCC | 1.91 µM | 4.15 µM | 1.63 µM | 4.26 µM | 9.86 µM | 21.5 µM | 2.15 µM | 5.53 µM | 3.33 µM | 23.4 µM | 1.93 µM | 4.19 µM | 2.35 µM | 6.56 µM | 1.81 µM | 3.43 µM | 2.06 µM | 4.9 µM | 2.15 µM | 4.89 µM
CCC(CC)n1cnc2c(-c3cnc(N)cn3)nc(N3CC4CCC(C3)O4)nc21 | 0.51 µM | 4.19 µM | 0.013 µM | 0.145 µM | 0.142 µM | 0.789 µM | 0.56 µM | > 100 µM | 0.79 µM | > 33.5 µM | 0.391 µM | 3.25 µM |  |  | 0.465 µM | > 100 µM | 0.108 µM | 2.5 µM | 1.3 µM | > 100 µM
Cc1ccc(CNc2ccc3nc(CCC4CCCCC4)[nH]c3c2)cc1 | 2.42 µM | 6.06 µM | 1.23 µM | 3.49 µM | 2.17 µM | 5.44 µM | 2.1 µM | 4.88 µM | 2.69 µM | 9.51 µM | 2.31 µM | 5.5 µM |  |  | 2.19 µM | 4.35 µM | 2.45 µM | 7.34 µM | 1.79 µM | 3.62 µM
